Data reported in ChEMBL document CHEMBL3137381, “MMV Box Onchocerca lienalis screening set”.

Legend:
Format in all cases: functional
Onchocerca lienalis [1] = experiment: MMV: Percent motility assay at a compound concentration of 1.9e-7 M. Activity score legend: 3: Active, 2: Moderately active; 1: Inactive, 0: Toxic; settings: at 0.19 µM
Onchocerca lienalis [2] = experiment: MMV: Percent motility assay at a compound concentration of 7.8e-7 M. Activity score legend: 3: Active, 2: Moderately active; 1: Inactive, 0: Toxic; settings: at 0.78 µM
Onchocerca lienalis [3] = experiment: MMV: Percent motility assay at a compound concentration of 1.25e-5 M. Activity score legend: 3: Active, 2: Moderately active; 1: Inactive, 0: Toxic; settings: at 12.5 µM
Onchocerca lienalis [4] = experiment: MMV: Percent motility assay at a compound concentration of 3.1e-6 M. Activity score legend: 3: Active, 2: Moderately active; 1: Inactive, 0: Toxic; settings: at 3.1 µM

Row | SMILES | Motility (Onchocerca lienalis [1]) [%] | Motility (Onchocerca lienalis [2]) [%] | Motility (Onchocerca lienalis [3]) [%] | Motility (Onchocerca lienalis [4]) [%]
1 | O=C(Nc1ccc(Cl)c(Cl)c1)Nc1ccc(Cl)c(Cl)c1 | 100 | 100 | 100 | 100
2 | COc1ccc(C2c3ccc4ccccc4c3Oc3ncn(CCCN(C)C)c(=N)c32)cc1 (centres undefined) | 100 | 100 | 100 | 100
3 | N=c1n(CCN2CCCCC2)c2ccccc2n1CC(=O)c1ccc(Cl)c(Cl)c1 | 100 | 100 | 100 | 100
4 | Nc1nc(Nc2cccc(F)c2)nc2ccccc12 | 100 | 100 | 100 | 100
5 | COc1ccc(/C=C2/SC(=Nc3ccccc3)NC2=O)cc1 | 100 | 100 | 100 | 100
6 | COc1ccc(-c2nc(N3CCN(C(=O)C4CCCCC4)CC3)c3c4c(sc3n2)CCCC4)cc1 | 100 | 100 | 100 | 100
7 | O=C(NC1CCN(Cc2ccccc2)CC1)c1cc2nc(-c3ccc(Cl)s3)cc(C(F)(F)F)n2n1 | 100 | 100 | 100 | 100
8 | Cc1sc(NC(=O)c2ccccc2)c(C(c2cccs2)N2CCN(c3ccccc3)CC2)c1C (centres undefined) | 100 | 100 | 100 | 100
9 | CCOC(=O)c1c(C)n(-c2ccccc2)c2ccc(OC(=O)c3cc(OC)c(OC)c(OC)c3)cc12 | 100 | 100 | 100 | 100
10 | COc1cc(C(=O)Nc2nc3c(cc4c5c(cccc53)CC4)s2)cc(OC)c1OC | 100 | 100 | 100 | 100
11 | COc1ccc(CCN2C(=O)c3[nH]nc(-c4cc(Cl)c(C)cc4O)c3C2c2ccccc2F)cc1 (centres undefined) | 100 | 100 | 100 | 100
12 | N#Cc1nc(Cc2cccc3ccccc23)oc1N1CCN(C(c2ccccc2)c2ccccc2)CC1 | 100 | 100 | 100 | 100
13 | COc1ccc(C2c3ccc4ccccc4c3Oc3ncn(CCCn4ccnc4)c(=N)c32)cc1OC (centres undefined) | 100 | 100 | 100 | 100
14 | CN(N=O)C1=C(NC2CCCCC2)C(=O)c2ccccc2C1=O | 100 | 100 | 100 | 100
15 | CCOc1ccc(N2C(N)=NC(N)=NC2(C)C)cc1.Cl | 100 | 100 | 100 | 100
16 | COc1cccc(Nc2nc(N)c3ccccc3n2)c1.Cl | 100 | 100 | 100 | 100
17 | Cc1ccc(C(=O)c2oc3ccc4c(C)cc(=O)oc4c3c2C)cc1 | 100 | 100 | 100 | 100
18 | CCCCCCc1cc2cc(-c3csc(C=Cc4ccccc4)n3)c(=O)oc2cc1O | 100 | 100 | 100 | 100
19 | O=C(CCl)NCCOc1ccc(Cl)cc1Cl | 100 | 100 | 100 | 100
20 | Oc1ccc(-c2nc(-c3ccc4oc5ccc(-c6[nH]c(-c7ccc(O)cc7)nc6-c6ccccc6)cc5c4c3)c(-c3ccccc3)[nH]2)cc1 | 100 | 100 | 100 | 100
21 | CC(Oc1ccc(NC(=O)c2cccs2)cc1)C(=O)c1ccc(Cl)cc1 (centres undefined) | 100 | 100 | 100 | 100
22 | COc1ccc(CNC(=O)c2cc3c(=O)n4ccccc4nc3n(CCc3ccccc3)c2=N)cc1 | 100 | 100 | 100 | 100
23 | O=C(NC1CCN(Cc2ccccc2)CC1)c1cc(C(=O)NC2CCN(Cc3ccccc3)CC2)cc(C(=O)NC2CCN(Cc3ccccc3)CC2)c1 | 100 | 100 | 100 | 100
24 | COc1ccc(CCn2c(=N)c(C(=O)NCc3cccnc3)cc3c(=O)n4cccc(C)c4nc32)cc1 | 100 | 100 | 100 | 100
25 | COc1ccc(-c2cn3c(C(=O)Nc4ccccc4Cl)c(-c4ccccc4)c4c3n2CCCC4)cc1 | 100 | 100 | 66.66 | 100
26 | Cl.Cn1c(=O)n(C)c2cc(CNCCNc3ccnc4cc(Cl)ccc34)ccc21 | 100 | 100 | 100 | 100

Row | SMILES | Motility (Onchocerca lienalis [1]) [%] | Motility (Onchocerca lienalis [2]) [%] | Motility (Onchocerca lienalis [3]) [%] | Motility (Onchocerca lienalis [4]) [%]
27 | CCN(CC)CCNc1ccnc2cc3ccccc3cc12.O=P(O)(O)O | 100 | 100 | 100 | 100
28 | CCOc1ccc2nc(C)cc(Nc3ccc(N(C)C)cc3)c2c1.Cl | 100 | 100 | 100 | 100
29 | COc1ccc(Nc2cc(C)nc(NCc3ccccc3)n2)cc1 | 100 | 100 | 66.66 | 100
30 | COc1ccc(C=C2SC(Nc3ccc(F)cc3)=NC2=O)c(OC)c1 | 100 | 100 | 100 | 100
31 | O=C1c2ccc3c4c(ccc(c24)C(=O)N1CCCCO)C(=O)N(CCCCO)C3=O | 100 | 100 | 100 | 100
32 | O=C(Nc1ccc(-c2nc3cc(NC(=O)c4ccc(Cl)cc4)ccc3[nH]2)cc1)c1ccc(Cl)cc1 | 100 | 100 | 100 | 100
33 | CCOC(=O)c1cnc2ccc(OC)cc2c1Nc1ccc(N2CCN(C)CC2)cc1 | 100 | 100 | 100 | 100
34 | COc1ccccc1C(=O)ON=C(N)Cc1cccc2ccccc12 | 100 | 100 | 100 | 100
35 | COc1ccc(C(=O)C(CCC(CNC(C)(C)C)C(=O)c2ccc(OC)cc2)CNC(C)(C)C)cc1 (centres undefined) | 100 | 100 | 100 | 100
36 | CCOc1cc2c(cc1OCC)C(c1cc(Cl)ccc1O)NCC2 (centres undefined) | 100 | 100 | 100 | 100
37 | CN1C=C(c2ccc3ccccc3n2)C(c2c[nH]c3ccccc23)c2ccccc21 (centres undefined) | 100 | 100 | 33.33 | 100
38 | OC(CNC1CCCCC1)Cn1c2ccc(I)cc2c2cc(I)ccc21 (centres undefined) | 100 | 100 | 100 | 100
39 | COc1cc(CNCCc2ccc(Cl)cc2)cc(OC)c1O | 100 | 100 | 100 | 100
40 | c1ccc(CNc2nc(Nc3ccccc3)nc3ccccc23)cc1 | 100 | 100 | 0 | 100
41 | Oc1ccc(Br)cc1CN1CCN(Cc2ccc(Cl)cc2)CC1 | 100 | 100 | 100 | 100
42 | CCOc1ccc2nc(C)cc(Nc3ccc(Br)cc3)c2c1 | 100 | 100 | 100 | 100
43 | COc1cc2c3cc1Oc1c(OC)c(OC)cc4c1C(Cc1ccc(O)c(c1)Oc1ccc(cc1)CC3N(C)CC2)N(C)CC4.Cl (centres undefined) | 100 | 100 | 100 | 100
44 | COc1ccc2sc(N(Cc3cccnc3)C(=O)c3ccc(C#N)cc3)nc2c1 | 100 | 100 | 100 | 100
45 | CC1CC2=C(CC1CNCCCN(C)C)C(C)(C)CCC2 (centres undefined) | 100 | 100 | 100 | 100
46 | CN(C)c1ccc(N=Cc2ccc(N3CCOCC3)cc2)cc1 | 100 | 100 | 93.33 | 100
47 | CCOC(=O)c1cnc2ccc(OC)cc2c1NCc1ccccc1 | 100 | 100 | 100 | 100
48 | CCOC(=O)C1=CN(C)C=C(C(=O)OCC)C1c1cc(Br)c(OCC)c(OC)c1 | 100 | 100 | 100 | 100
49 | CC(C)(C)c1ccc(C2CC3=Nc4ccccc4N(C(=O)c4ccccc4Cl)C(c4ccc(F)cc4)C3=C(O)C2)cc1 (centres undefined) | 100 | 100 | 100 | 100
50 | CN1CCN(c2nc(Nc3ccc(O)cc3)nc3ccccc23)CC1.Cl | 100 | 100 | 100 | 100
51 | CCCCc1c(CCC)c(=N)c2ccccc2n1C.I | 100 | 100 | 100 | 100
